Test results published in patent publication US20170165237A1 (DRUGGABILITY TECHNOLOGIES IP HOLDCO LIMITED, priority 2014, published 2017).

How the values were obtained:
[1] = subconjunctival, 5 subjects; cited from earlier work
P-gp = P-gp (Homo sapiens, UniProt P08183); details: cited from earlier work
in vitro = details: PAMPA, pH 7
Experimental: The receiver compartment was phosphate buffered saline (pH 7.0) supplemented with 1% sodium dodecyl sulfate. The assay was performed at room temperature; incubation time was 1-24 hours. The concentration in the receiver compartment was determined by UV-VIS spectrophotometry (Thermo Scientific Genesys S10).

human plasma proteins [2] = target: human plasma proteins (Homo sapiens, UniProt P02768); details: serum albumin; cited from earlier work
human plasma proteins [3] = details: cited from earlier work
angiogenesis pathways = details: topical 1%; cited from earlier work
[4] = topical, psoriasis; cited from earlier work
[5] = in vivo; cited from earlier work
CYP3A4 = CYP3A4 (Homo sapiens, UniProt P08684); details: cited from earlier work
Sequence of CYP3A4 (P08684 whole entry): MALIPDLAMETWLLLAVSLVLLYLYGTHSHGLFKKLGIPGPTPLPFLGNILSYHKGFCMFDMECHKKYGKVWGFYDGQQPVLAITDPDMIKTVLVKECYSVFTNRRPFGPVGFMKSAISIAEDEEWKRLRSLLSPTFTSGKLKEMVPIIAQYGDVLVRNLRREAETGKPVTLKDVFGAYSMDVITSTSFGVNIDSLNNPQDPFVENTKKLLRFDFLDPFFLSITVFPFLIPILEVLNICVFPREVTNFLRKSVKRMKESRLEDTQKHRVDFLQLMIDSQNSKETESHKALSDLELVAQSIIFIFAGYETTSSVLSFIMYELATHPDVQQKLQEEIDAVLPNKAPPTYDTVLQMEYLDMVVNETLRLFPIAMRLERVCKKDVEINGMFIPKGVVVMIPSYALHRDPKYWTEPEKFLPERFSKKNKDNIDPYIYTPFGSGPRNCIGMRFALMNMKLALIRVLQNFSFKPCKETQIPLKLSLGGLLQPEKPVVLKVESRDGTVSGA

[6] = in vivo; cited from earlier work; remark: listed apart in the source
[7] = cited from earlier work
[8] = cited from earlier work; remark: listed apart in the source
[9] = single dose [14C] Sirolimus oral solution, healthy volunteers

Sequence of P-gp (P08183 whole entry): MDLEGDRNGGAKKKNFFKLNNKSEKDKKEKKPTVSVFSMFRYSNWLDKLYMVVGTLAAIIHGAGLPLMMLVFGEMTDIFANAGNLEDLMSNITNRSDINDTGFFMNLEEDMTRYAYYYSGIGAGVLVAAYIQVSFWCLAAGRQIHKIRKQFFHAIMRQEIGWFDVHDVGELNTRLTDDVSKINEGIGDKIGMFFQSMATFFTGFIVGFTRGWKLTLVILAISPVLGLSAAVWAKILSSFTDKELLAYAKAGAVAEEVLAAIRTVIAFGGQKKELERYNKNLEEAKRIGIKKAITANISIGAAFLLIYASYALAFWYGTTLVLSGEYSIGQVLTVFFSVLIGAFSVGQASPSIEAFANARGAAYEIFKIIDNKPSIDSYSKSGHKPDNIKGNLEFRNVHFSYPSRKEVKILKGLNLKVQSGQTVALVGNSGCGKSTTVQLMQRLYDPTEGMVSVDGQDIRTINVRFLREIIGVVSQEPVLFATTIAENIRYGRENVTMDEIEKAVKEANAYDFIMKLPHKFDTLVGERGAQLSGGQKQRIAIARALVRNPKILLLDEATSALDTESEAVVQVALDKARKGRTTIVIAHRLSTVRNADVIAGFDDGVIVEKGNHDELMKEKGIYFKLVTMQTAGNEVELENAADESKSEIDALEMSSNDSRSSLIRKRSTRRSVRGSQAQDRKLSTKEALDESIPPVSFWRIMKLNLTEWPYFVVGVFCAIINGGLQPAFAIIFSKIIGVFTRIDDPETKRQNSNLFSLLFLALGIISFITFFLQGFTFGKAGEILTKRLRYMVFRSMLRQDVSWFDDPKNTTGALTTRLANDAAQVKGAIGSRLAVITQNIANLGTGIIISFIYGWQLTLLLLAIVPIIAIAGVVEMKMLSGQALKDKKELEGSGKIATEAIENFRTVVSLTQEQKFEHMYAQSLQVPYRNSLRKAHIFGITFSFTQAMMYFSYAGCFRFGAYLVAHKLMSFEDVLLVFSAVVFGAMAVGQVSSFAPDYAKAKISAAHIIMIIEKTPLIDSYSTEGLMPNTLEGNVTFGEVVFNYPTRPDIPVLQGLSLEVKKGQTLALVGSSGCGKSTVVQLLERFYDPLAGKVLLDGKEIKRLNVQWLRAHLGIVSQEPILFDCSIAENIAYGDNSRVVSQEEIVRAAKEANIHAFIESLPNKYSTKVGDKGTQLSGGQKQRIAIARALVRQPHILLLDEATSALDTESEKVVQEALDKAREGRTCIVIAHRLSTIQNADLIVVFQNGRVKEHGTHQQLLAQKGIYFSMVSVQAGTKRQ
Sequence of human plasma proteins (Homo sapiens, UniProt P02768) (P02768 25-609): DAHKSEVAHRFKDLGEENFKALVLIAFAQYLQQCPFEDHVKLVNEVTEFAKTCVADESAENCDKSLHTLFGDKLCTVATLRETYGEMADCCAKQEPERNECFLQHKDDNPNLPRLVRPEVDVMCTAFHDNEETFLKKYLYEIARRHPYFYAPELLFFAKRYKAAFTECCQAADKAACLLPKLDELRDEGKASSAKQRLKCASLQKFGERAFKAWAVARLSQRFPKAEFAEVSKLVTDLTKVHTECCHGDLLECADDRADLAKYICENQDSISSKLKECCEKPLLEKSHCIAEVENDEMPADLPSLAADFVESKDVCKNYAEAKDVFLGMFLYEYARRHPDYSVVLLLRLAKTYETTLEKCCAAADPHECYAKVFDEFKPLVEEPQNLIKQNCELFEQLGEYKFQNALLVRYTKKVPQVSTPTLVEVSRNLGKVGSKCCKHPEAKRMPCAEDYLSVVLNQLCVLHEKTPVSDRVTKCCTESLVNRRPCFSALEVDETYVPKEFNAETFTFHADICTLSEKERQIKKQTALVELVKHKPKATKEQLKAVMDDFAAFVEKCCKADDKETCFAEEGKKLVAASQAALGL

SMILES: CO[C@H]1C[C@@H]2CC[C@@H](C)[C@@](O)(O2)C(=O)C(=O)N2CCCC[C@H]2C(=O)O[C@H]([C@H](C)C[C@@H]2CC[C@@H](O)[C@H](OC)C2)CC(=O)[C@H](C)/C=C(\C)[C@@H](O)[C@@H](OC)C(=O)[C@H](C)C[C@H](C)/C=C/C=C/C=C/1C [Sirolimus, (3 S,6R,7E,9R,10R, 12R, 14S, 15E, 17E, 19E,21 S,23 S,26R,27R,34aS)9,10,12,13,14,21,22,23,24, 25,26,27,32,33,34, 34a-hexadecahydro-9,27-dihydroxy-3-[(1R)-2[(1 S,3R,4R)-4-hydroxy-3-methoxycyclohexyl]-1-methylethyl]-10,21-dimethoxy6,8,12,14,20,26-hexamethyl-23,27-epoxy-3H-pyrido[2,1-c][1,4]oxaazacyclohentriacontine1,5,11,28,29 (4H,6H,31H)-pentone]
- tolerability [1]: well tolerated
- substrate for P-gp (P-gp): substrate
- Papp (in vitro): < 1 ×10⁻⁶ cm/s
- bound mainly to serum albumin (human plasma proteins [2]): 97%
- bound to human plasma proteins (human plasma proteins [3]): approximately 92%
- angiogenesis pathways; regeneration and revascularization of photocoagulated blood vessels (angiogenesis pathways): can suppress
- clinical score [4]: significant reduction
- plaque thickness and erythema [4]: did not show significant improvement
- immune-mediated events in autoimmune disease models [5]: suppresses
- substrate for CYP3A4 (CYP3A4): substrate
- allograft survival [6]: prolongs
- increase of mean total exposure (AUC) by high-fat meal compared with fasting ([7]; healthy subjects, high-fat meal (861.8 kcal, 54.9% kcal from fat)): 23 to 35%
- mean±SD terminal elimination half-life (t1/2) ([7]; multiple dosing, stable renal transplant patients): about 62±16 hours
- contribution to immunosuppressive activity in human whole blood ([7]; parent vs metabolites, human whole blood): more than 90%
- radioactivity excreted in urine [7, 9]: 2.2%
- radioactivity recovered from the feces [7, 9]: 91%
- systemic absorption after topical application ([8]; detection >1.0 ng/mL): No detectable systemic absorption
- effect on facial angiofibromas ([8]; topical): causes regression
